Key:
Format in all cases: cell-based
[1] = tested on: T24; test: MTT test, T24; conditions: Homo sapiens, T-24, 10^−5 M, 72 hours, control = 100%, mean ± SEM, read-out: average optical density (MTT), percentage relative to control
Experimental: (§1) The influence of the compounds of formulae (I) and (Ia) on non-clonogenic cells was evaluated with the aid of the MTT calorimetric test.
(§2) The principle of the MTT test is based on the mitochondrial reduction, by the metabolically active live cells, of the yellow-colored product MTT (3-(4,5-dimethylthiazol-2-yl)-2,5-diphenyltetrazolium bromide) to a blue-colored product, formazan. The amount of formazan thus obtained is directly proportional to the amount of live cells present in the culture well(s). This amount of formazan is measured by spectrophotometry.
(§3) The cell lines are maintained as a monolayer culture at 37° C. in stoppered culture dishes containing MEM 25 MM HEPES (Minimum Essential Medium) base medium. This medium is suited to the growth of a range of various mammalian diploid or primary cells. This medium is then supplemented with:
(§4) an amount of 5% of FCS (Foetal Calf Serum) decomplemented at 56° C. for 1 hour,
(§5) 0.6 mg/ml of L-glutamine,
(§6) 200 μg/ml of streptomycin,
(§7) The 12 human cancer cell lines which were used were obtained from the American Type Culture Collection (ATCC, Rockville, Md., USA). These 12 cell lines are:
J82 (code ATCC: HTB-1) and T24 (code ATCC: HTB-4) which are two bladder cancers,
(§8) Experimentally: 100 μl of a cell suspension containing 20 000 to 50 000 (depending on the cell type used) cells/ml of culture medium are inoculated in 96-well flat-bottomed multi-well plates and are incubated at 37° C., under an atmosphere comprising 5% CO2 and 70% humidity. After incubation for 24 hours, the culture medium is replaced with 100 μl of fresh medium containing either the various test compounds at concentrations ranging from 10^−5 to 10^−10 M or the solvent used to dissolve the test products (control condition). After incubation for 72 hours under the above conditions, the culture medium is replaced with 100 μl of a yellowish solution of MTT dissolved at a rate of 1 mg/ml in RPMI 1640. The microplates are reincubated for 3 hours at 37° C. and are then centrifuged for 10 minutes at 400×g. The yellowish solution of MTT is removed and the blue formazan crystals formed in the cell are dissolved in 100 μl of DMSO. The microplates are then shaken for 5 minutes. The intensity of the resulting blue coloration, and thus of the conversion of the yellow product MTT into blue formazan by the cells that are still alive at the end of the experiment, is quantified by spectrophotometry using a Dynatech Immunoassay System machine at wavelengths of 570 nm and 630 nm corresponding, respectively, to the maximum absorption wavelengths of formazan and to the background noise. Software incorporated in the spectrophotometer calculates the average optical density values and the standard deviation (SD) and standard error of mean (SEM) values.
(§9) By way of example, the results of the average optical density, expressed as a percentage relative to the average optical density measured under the control condition (set equal to 100%), obtained at a concentration of 10^−5 M on the 12 abovementioned tumor cell lines are given in Table II.

[2] = tested on: LoVo; test: MTT test, LoVo; conditions: Homo sapiens, 10^−5 M, 72 hours, control = 100%, mean ± SEM, read-out: average optical density (MTT), percentage relative to control
Experimental: as §1, §2, §3, §4, §5, §6, §7
HTC-15 (code ATCC: CCL-225) and LoVo (code ATCC: CCL-229) which are two colorectal cancers,
as §8, §9

[3] = tested on: MCF7; test: MTT test, MCF7; conditions: Homo sapiens, 10^−5 M, 72 hours, control = 100%, mean ± SEM, read-out: average optical density (MTT), percentage relative to control
Experimental: as §1, §2, §3, §4, §5, §6, §7
T-47D (code ATCC: HTB-133) and MCF7 (code ATCC: HTB-22) which are two breast cancers,
as §8, §9

[4] = tested on: A549; test: MTT test, A549; conditions: Homo sapiens, 10^−5 M, 72 hours, control = 100%, mean ± SEM, read-out: average optical density (MTT), percentage relative to control
Experimental: as §1, §2, §3, §4, §5, §6, §7
A549 (code ATCC: CCL-185) and A-427 (code ATCC: HTB-53) which are two non-small-cell lung cancers,
as §8, §9

## COc1ccc(-c2cc3c(OC)cc(OC)cc3[nH]c2=O)cc1 [CRL8246, 5,7-Dimethoxy-3-(4-methoxyphenyl)-1,2-dihydro-2-quinolinone]
[1]
  viability at 10 µM: 109 ± 3.5%
[2]
  viability at 10 µM: 109 ± 7%
[3]
  viability at 10 µM: 98.1 ± 1.4%
[4]
  viability at 10 µM: 113 ± 2.1%

## COc1ccc(-c2cc3c(OC)cc(OC)cc3n(CCC#N)c2=O)cc1 [CRL8247, 3-[5,7-Dimethoxy-3-(4-methoxyphenyl)-2-oxo-1,2-dihydro-1-quinolinyl]propanenitrile]
[1]
  viability at 10 µM: 77.8 ± 2.7%
[2]
  viability at 10 µM: 66.4 ± 2.5%
[3]
  viability at 10 µM: 78.9 ± 1.1%
[4]
  viability at 10 µM: 81.3 ± 1.9%

## COc1ccc(-c2cc3c(OC)cc(OC)cc3n(CCc3nnn[nH]3)c2=O)cc1 [CRL8256, 1-[2-(1H-1,2,3,4-Tetrazol-5-yl)ethyl]-5,7-dimethoxy-3-(4-methoxyphenyl)-1,2-dihydro-2-quinolinone]
[1]
  viability at 10 µM: 78.2 ± 2.6%
[2]
  viability at 10 µM: 93 ± 2.3%
[3]
  viability at 10 µM: 81.8 ± 1.6%
[4]
  viability at 10 µM: 56.5 ± 3.7%

## CCN(CC)C(=O)CCn1c(=O)c(-c2ccc(OC)cc2)cc2c(OC)cc(OC)cc21 [CRL8283, N,N-Diethyl-3-[5,7-dimethoxy-3-(4-methoxy-phenyl)-2-oxo-1,2-dihydro-1-quinolinyl]propanamide]
[1]
  viability at 10 µM: 72.9 ± 0.9%
[2]
  viability at 10 µM: 97.3 ± 3.6%
[3]
  viability at 10 µM: 76.2 ± 0.9%
[4]
  viability at 10 µM: 63.6 ± 4.2%

## CCN(CC)C(=O)Cn1c(=O)c(-c2ccc(OC)cc2)cc2c(OC)cc(OC)cc21 [CRL8315, N,N-Diethyl-2-[5,7-dimethoxy-3-(4-methoxy-phenyl)-2-oxo-1,2-dihydro-1-quinolinyl]acetamide]
[1]
  viability at 10 µM: 89.6 ± 2.1%
[2]
  viability at 10 µM: 78.9 ± 2.1%
[3]
  viability at 10 µM: 96.2 ± 1.7%
[4]
  viability at 10 µM: 76.1 ± 2.4%

## COc1ccc(-c2cc3c(OC)cc(OC)cc3n(CCN(C)C)c2=O)cc1 [CRL8316, 1-[2-(Dimethylamino)ethyl]-5,7-dimethoxy-3-(4-methoxyphenyl)-1,2-dihydro-2-quinolinone]
[1]
  viability at 10 µM: 94 ± 3.2%
[2]
  viability at 10 µM: 73.9 ± 2.1%
[3]
  viability at 10 µM: 78.9 ± 4%
[4]
  viability at 10 µM: 84.2 ± 1.9%

From patent US6593342B1, “Pharmaceutical compositions comprising 2-quinolones” (Laboratoire L. Lafon, priority 1998, dated 2003)
